Experimental data taken from US8759355B2, “Aryl pyrimidine derivatives, preparation methods and pharmaceutical uses thereof” (Institute of Pharmacology and Toxicology Academy of …, priority 2008, dated 2014).

Tested on: not given
Test: not given
Conditions: not given

Q: With `O=C(O)CCc1ccc(OCc2ccnc(-c3ccc(F)cc3)n2)cc1` [Example 1, 3-{4-[2-(4-fluorophenyl)-pyrimidin-4-yl-methoxy]-phenyl}-propionic acid] as the compound, how does the melting point read?
A: 167.2 to 168 °C

Q: For `O=C(O)CCc1ccc(OCc2ccnc(-c3ccc(Cl)cc3)n2)cc1` [Example 2, 3-{4-[2-(4-chlorophenyl)-pyrimidin-4-yl-methoxy]-phenyl}-propionic acid], which melting point is on record?
A: 168.3 to 169.4 °C

Q: Which melting point does the source give for `O=C(O)CCc1ccc(OCc2ccnc(-c3ccc(Br)cc3)n2)cc1` [Example 3, 3-{4-[2-(4-bromophenyl)-pyrimidin-4-yl-methoxy]-phenyl}-propionic acid] here?
A: 168 to 168.8 °C

Q: Which melting point does the source give for `O=C(O)CCc1ccc(OCc2ccnc(-c3ccc(C(F)(F)F)cc3)n2)cc1` [Example 4, 3-{4-[2-(4-trifluoromethylphenyl)-pyrimidin-4-yl-methoxy]-phenyl}-propionic acid] here?
A: 146.6 to 147.5 °C

Q: For `O=C(O)CCc1ccc(OCc2ccnc(-c3c(F)cc(F)cc3F)n2)cc1` [Example 5, 3-{4-[2-(2,4,6-trifluorophenyl)-pyrimidin-4-yl-methoxy]-phenyl}-propionic acid], which melting point is on record?
A: 143.8 to 144.1 °C

Q: With `Cc1cc(SCc2ccnc(-c3ccc(C(F)(F)F)cc3)n2)ccc1OCC(=O)O` [example 7, {2-methyl-4-[2-(4-trifluoromethylphenyl)-pyrimidin-4-yl-methylthio]phenoxy}-acetic acid] as the compound, how does the melting point read?
A: 159.3 to 160.2 °C

Q: With `Cc1cc(SCc2ccnc(-c3ccc(F)cc3)n2)ccc1OC(C)(C)C(=O)O` [example 18, 2-methyl-2-{2-methyl-4-[2-(4-fluorophenyl)-pyrimidin-4-yl-methylthio]-phenoxy}-propionic acid] as the compound, how does the melting point read?
A: 139.5 to 140.4 °C

Target: T1, human PPARδ (Homo sapiens, UniProt Q03181)
T1 construct: expressed in transfected cells; host or cells: HEK-293 cells (transient co-transfection)
T1 sequence (Q03181 211-439 limits assumed): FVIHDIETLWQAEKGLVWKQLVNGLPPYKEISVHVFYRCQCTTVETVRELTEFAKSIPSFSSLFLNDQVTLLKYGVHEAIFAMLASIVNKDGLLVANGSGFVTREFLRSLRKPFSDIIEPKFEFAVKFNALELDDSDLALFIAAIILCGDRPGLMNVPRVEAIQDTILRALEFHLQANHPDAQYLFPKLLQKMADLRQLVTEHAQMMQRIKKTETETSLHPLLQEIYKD
Test: Transfection determination: pM-hPPARδ/GAL4 chimeric receptor luciferase reporter, transient transfection in HEK-293 cells
Format: cell-based
Conditions: 1 μM, luciferase read 24 hours after administration, GW501516 positive control
Source text: Transfection Determination
The functional titration of the transient transfection of the compounds in HEK-293 cells was screened to determine their ability to activate PPAR subtype. Chimeric acceptor system was built in advance to compare relative transcription activity of acceptor subtype to same target gene and prevent the complexness of endogenous acceptor activation due to the explanation of results. Ligand binding domain of human PPARδ was fused to yeast transcription factor GAL4DNA binding domain, and then linked to expression carrier pM of mammal to build pM-hPPARδ/GAL4 plasmids. GAL4DNA binding region was connected to pB4-tk-luc to pB4-RES-tk-luc (a report gene of firefly luciferin enzyme containing 5 templates of GAL4DNA binding site). pRL-CMV-Rluc was used as internal standard to correct transfection efficiency and endogenous influence and reduce experimental error.
HEK-293 cells were grown in 48 wells plate, the density of cells was 2-4×10^4/well. The culture medium was 1640 of 10% defatted FCS free of phenol red and antibiotics. After 48 hours, the culture medium was changed as 1640 of 5% defatted FCS free of phenol red and antibiotics, and then pM-hPPARδ/GAL4, pB4-RES-tk-luc and pRL-CMV-Rluc plasmids were co-transfected in HEK-293 cells. The drug was administered after 24 hours, and the luminous intensity of luciferin enzyme was determined 24 hours after administration. The control was 0.2% DMSO.

Q: With “2-methyl-2-{2-methyl-4-[2-(4-trichloromethylphenyl)-pyrimidin-4-yl-methylthio]-phenoxy}-propionic acid [example 20]” as the compound, how does the “Activation ability % (Activation of part of compounds for PPARδ)” value read?
A: 144.86%

Q: Which “Activation ability % (Activation of part of compounds for PPARδ)” value does the source give for `Cc1cc(SCc2ccnc(-c3ccc(C(F)(F)F)cc3)n2)ccc1OCC(=O)O` [example 7, {2-methyl-4-[2-(4-trifluoromethylphenyl)-pyrimidin-4-yl-methylthio]phenoxy}-acetic acid] here?
A: 94.86%

Q: Which “Activation ability % (Activation of part of compounds for PPARδ)” value does the source give for `Cc1cc(SCc2ccnc(-c3ccc(F)cc3)n2)ccc1OCC(=O)O` [example 8, {2-methyl-4-[2-(4-fluorophenyl)-pyrimidin-4-yl-methylthio]-phenoxy}-acetic acid] here?
A: 135.46%

Q: For `Cc1cc(SCc2ccnc(-c3ccc(Cl)cc3)n2)ccc1OCC(=O)O` [example 9, {2-methyl-4-[2-(4-chlorophenyl)-pyrimidin-4-yl-methylthio]-phenoxy}-acetic acid], which “Activation ability % (Activation of part of compounds for PPARδ)” value is on record?
A: 88.35%

Q: For `Cc1cc(SCc2ccnc(-c3ccc(Br)cc3)n2)ccc1OCC(=O)O` [example 10, {2-methyl-4-[2-(4-bromophenyl)-pyrimidin-4-yl-methylthio]-phenoxy}-acetic acid], which “Activation ability % (Activation of part of compounds for PPARδ)” value is on record?
A: 108.55%

Q: With `Cc1cc(SCc2ccnc(-c3ccc(Cl)cc3)n2)ccc1OC(C)(C)C(=O)O` [example 17, 2-methyl-2-{2-methyl-4-[2-(4-chlorophenyl)-pyrimidin-4-yl-methylthio]-phenoxy}-propionic acid] as the compound, how does the “Activation ability % (Activation of part of compounds for PPARδ)” value read?
A: 119.51%

Q: With `Cc1cc(SCc2ccnc(-c3ccc(F)cc3)n2)ccc1OC(C)(C)C(=O)O` [example 18, 2-methyl-2-{2-methyl-4-[2-(4-fluorophenyl)-pyrimidin-4-yl-methylthio]-phenoxy}-propionic acid] as the compound, how does the “Activation ability % (Activation of part of compounds for PPARδ)” value read?
A: 103.26%
